Experimental data taken from PubChem BioAssay AID248 (DTP/NCI, 2004).
Values joined by “and” are separate entries in the source; they are usually repeats but may differ in a detail not shown here. Identical values can stand only once. Inconclusive results and toxic doses are left out. Cut-off read from the data, not from the text of the source: active = T/C of 150% or more; inactive = T/C below 125%.

System: L1210 leukemia ip in BDF1 mice, survival T/C
Experiment: NCI In Vivo Anticancer Drug Screen. Data for tumor model L1210 Leukemia (intraperitoneal) in B6D2F1 (BDF1) mice
Settings: endpoint: mean survival time, vehicle: water, higher = longer survival
In short: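 Ratio derived from survival: compound-dosed mice over vehicle-dosed mice, all bearing a transplantable tumor.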

Measured: T/C

O=C(NO)c1ccncc1
inactive: dose: 6.25 mg/kg/injection, schedule: Q03HX008 (ip) 96 % of control | dose: 12.5 mg/kg/injection, schedule: Q03HX008 (ip) 100 % of control | dose: 18.75 mg/kg/injection, schedule: Q03HX008 (ip) 95 % of control | dose: 25.0 mg/kg/injection, schedule: Q01DX005 (iv) 100 % of control | dose: 33.0 mg/kg/injection, schedule: Q#B X027 (sc) 98 % of control | dose: 50.0 mg/kg/injection, schedule: Q01DX005 (iv) 100 % of control and 105 % of control | dose: 50.0 mg/kg/injection, schedule: Q01DX009 (sc) 98 % of control | dose: 67.0 mg/kg/injection, schedule: Q#B X027 (ip) 98 % of control | dose: 100.0 mg/kg/injection, schedule: Q01DX005 (iv) 101 % of control and 102 % of control and 105 % of control | dose: 100.0 mg/kg/injection, schedule: Q01DX009 (ip) 94 % of control and 100 % of control | dose: 100.0 mg/kg/injection, schedule: Q01DX009 (sc) 93 % of control and 100 % of control | dose: 100.0 mg/kg/injection, schedule: Q01DX010 (ip) 106 % of control | dose: 125.0 mg/kg/injection, schedule: Q01DX001 (ip) 97 % of control | dose: 133.0 mg/kg/injection, schedule: Q#B X027 (ip) 103 % of control | dose: 134.0 mg/kg/injection, schedule: Q#B X027 (sc) 107 % of control | dose: 200.0 mg/kg/injection, schedule: Q01DX001 (ip) 107 % of control | dose: 200.0 mg/kg/injection, schedule: Q01DX005 (ip) 101 % of control | dose: 200.0 mg/kg/injection, schedule: Q01DX005 (iv) 100 % of control and 101 % of control | dose: 200.0 mg/kg/injection, schedule: Q01DX009 (sc) 96 % of control | dose: 200.0 mg/kg/injection, schedule: Q01DX010 (ip) 107 % of control | dose: 200.0 mg/kg/injection, schedule: Q01DX Z (ip) 117 % of control | dose: 200.0 mg/kg/injection, schedule: Q02DX Z (ip) 114 % of control | dose: 200.0 mg/kg/injection, schedule: Q04DX003 (ip) 103 % of control | dose: 200.0 mg/kg/injection, schedule: Q08DX002 (ip) 103 % of control | dose: 200.0 mg/kg/injection, schedule: Q#A X030 (ip) 98 % of control | dose: 200.0 mg/kg/injection, schedule: Q#B X027 (ip) 122 % of control | dose: 200.0 mg/kg/injection, schedule: Q#B X027 (sc) 98 % of control | dose: 220.0 mg/kg/injection, schedule: Q01DX Z (ip) 111 % of control | dose: 222.0 mg/kg/injection, schedule: Q01DX015 (ip) 104 % of control | dose: 222.0 mg/kg/injection, schedule: Q01DX Z (ip) 105 % of control and 106 % of control and 119 % of control | dose: 225.0 mg/kg/injection, schedule: Q01DX Z (ip) 109 % of control | dose: 250.0 mg/kg/injection, schedule: Q01DX001 (ip) 94 % of control and 108 % of control | dose: 250.0 mg/kg/injection, schedule: Q01DX005 (iv) 97 % of control | dose: 250.0 mg/kg/injection, schedule: Q01DX009 (oral) 96 % of control and 98 % of control | dose: 250.0 mg/kg/injection, schedule: Q01DX009 (sc) 93 % of control | dose: 250.0 mg/kg/injection, schedule: Q01DX015 (iv) 106 % of control | dose: 250.0 mg/kg/injection, schedule: Q03HX024 (ip) 100 % of control | dose: 267.0 mg/kg/injection, schedule: Q#B X027 (sc) 97 % of control | dose: 270.0 mg/kg/injection, schedule: Q01DX015 (ip) 121 % of control | dose: 300.0 mg/kg/injection, schedule: Q01DX015 (im) 93 % of control | dose: 300.0 mg/kg/injection, schedule: Q01DX Z (ip) 112 % of control | dose: 300.0 mg/kg/injection, schedule: Q02DX Z (ip) 112 % of control | dose: 300.0 mg/kg/injection, schedule: Q#A X030 (ip) 98 % of control | dose: 333.0 mg/kg/injection, schedule: Q01DX015 (ip) 119 % of control | dose: 333.0 mg/kg/injection, schedule: Q01DX Z (ip) 120 % of control | dose: 335.0 mg/kg/injection, schedule: Q01DX Z (ip) 97 % of control and 116 % of control | dose: 400.0 mg/kg/injection, schedule: Q01DX001 (ip) 100 % of control | dose: 400.0 mg/kg/injection, schedule: Q01DX005 (iv) 103 % of control | dose: 400.0 mg/kg/injection, schedule: Q01DX009 (sc) 100 % of control | dose: 400.0 mg/kg/injection, schedule: Q01DX015 (ip) 111 % of control | dose: 400.0 mg/kg/injection, schedule: Q01DX015 (sc) 104 % of control | dose: 400.0 mg/kg/injection, schedule: Q04DX003 (ip) 114 % of control | dose: 400.0 mg/kg/injection, schedule: Q08DX002 (ip) 105 % of control | dose: 500.0 mg/kg/injection, schedule: Q01DX001 (ip) 111 % of control and 113 % of control | dose: 500.0 mg/kg/injection, schedule: Q01DX005 (iv) 100 % of control | dose: 500.0 mg/kg/injection, schedule: Q01DX009 (oral) 93 % of control and 105 % of control | dose: 500.0 mg/kg/injection, schedule: Q01DX009 (sc) 94 % of control and 100 % of control | dose: 500.0 mg/kg/injection, schedule: Q01DX015 (im) 104 % of control | dose: 500.0 mg/kg/injection, schedule: Q01DX015 (ip) 121 % of control | dose: 500.0 mg/kg/injection, schedule: Q01DX015 (oral) 97 % of control | dose: 500.0 mg/kg/injection, schedule: Q03HX024 (ip) 98 % of control | dose: 600.0 mg/kg/injection, schedule: Q01DX001 (ip) 105 % of control | dose: 600.0 mg/kg/injection, schedule: Q01DX005 (ip) 101 % of control | dose: 600.0 mg/kg/injection, schedule: Q01DX005 (iv) 103 % of control | dose: 600.0 mg/kg/injection, schedule: Q01DX015 (sc) 98 % of control | dose: 600.0 mg/kg/injection, schedule: Q02DX Z (ip) 123 % of control | dose: 600.0 mg/kg/injection, schedule: Q03DX005 (ip) 108 % of control | dose: 600.0 mg/kg/injection, schedule: Q04DX003 (ip) 120 % of control | dose: 600.0 mg/kg/injection, schedule: Q08DX002 (ip) 105 % of control | dose: 750.0 mg/kg/injection, schedule: Q01DX009 (oral) 100 % of control | dose: 750.0 mg/kg/injection, schedule: Q01DX009 (sc) 111 % of control | dose: 750.0 mg/kg/injection, schedule: Q01DX015 (im) 113 % of control | dose: 750.0 mg/kg/injection, schedule: Q01DX015 (ip) 113 % of control | dose: 750.0 mg/kg/injection, schedule: Q03HX024 (ip) 96 % of control | dose: 800.0 mg/kg/injection, schedule: Q01DX005 (ip) 107 % of control | dose: 800.0 mg/kg/injection, schedule: Q01DX Z (ip) 114 % of control | dose: 800.0 mg/kg/injection, schedule: Q03DX005 (ip) 107 % of control | dose: 800.0 mg/kg/injection, schedule: Q08DX002 (ip) 111 % of control | dose: 900.0 mg/kg/injection, schedule: Q01DX001 (ip) 105 % of control | dose: 1000.0 mg/kg/injection, schedule: Q01DX001 (ip) 106 % of control | dose: 1000.0 mg/kg/injection, schedule: Q01DX009 (oral) 102 % of control and 105 % of control | dose: 1000.0 mg/kg/injection, schedule: Q01DX015 (oral) 109 % of control | dose: 1000.0 mg/kg/injection, schedule: Q03HX024 (ip) 95 % of control | dose: 1100.0 mg/kg/injection, schedule: Q03DX005 (ip) 108 % of control | dose: 1500.0 mg/kg/injection, schedule: Q03HX024 (ip) 113 % of control
